This assay deals with Platelet-activating factor receptor (Homo sapiens, UniProt P25105). As to the kind of experiment: Inhibition of [3H]PAF binding to platelet activating factor receptor in human platelet.
Platelet-activating factor receptor, sequence (P25105 whole entry): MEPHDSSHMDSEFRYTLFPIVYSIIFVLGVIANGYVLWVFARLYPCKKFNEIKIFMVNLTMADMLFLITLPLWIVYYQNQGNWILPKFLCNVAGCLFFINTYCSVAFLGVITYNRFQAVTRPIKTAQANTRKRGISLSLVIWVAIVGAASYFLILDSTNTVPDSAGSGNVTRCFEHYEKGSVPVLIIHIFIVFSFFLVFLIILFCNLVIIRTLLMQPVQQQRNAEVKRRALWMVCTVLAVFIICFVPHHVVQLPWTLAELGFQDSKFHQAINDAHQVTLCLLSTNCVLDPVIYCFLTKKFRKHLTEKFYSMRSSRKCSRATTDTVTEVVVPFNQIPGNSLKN

One may read the IC50 as the concentration at which inhibition is half-maximal. A high value points to weaker potency. Regarding `C/C1=C\CC[C@]2(C)O[C@@H]3C[C@@H](C)C(C)(CC1)C1=C3[C@](O)(OC1)[C@H]2O` (single isomer, unassigned), the IC50 was 1260 nM.
`C/C1=C\CC[C@@]2(C)O[C@@H]2[C@@]2(O)OCC3=C2[C@@H](O)C[C@@H](C)[C@]3(C)CC1` had an IC50 of 1450 nM.
In the case of `C/C1=C\CC[C@]2(C)O[C@H]2[C@@]2(O)OCC3=C2[C@H](O)C[C@@H](C)[C@]3(C)CC1` it was 1120 nM; in that of `C/C1=C\CC[C@]2(C)O[C@H]2[C@@]2(O)OCC3=C2CC[C@@H](C)[C@]3(C)CC1`, 575 nM; in that of `C/C1=C\CC[C@]2(C)O[C@@H]3C[C@@H](C)[C@](C)(CC1)[C@]14CO[C@](O)([C@H]2O)[C@]31O4`, 2340 nM.
In the case of `C/C1=C\[C@@]2(O)OC[C@]34O[C@]23CC[C@@H](C)C4(C)CC/C(C)=C/CC1` (single isomer, unassigned) it was 1150 nM; in that of `C/C1=C\CC[C@@]2(C)O[C@@H]2[C@@]2(O)OCC3=C2CC[C@@H](C)[C@]3(C)CC1`, 575 nM.

Values taken from ChEMBL document CHEMBL1140239, “Novel phomactin analogues as PAF receptor ligands” (Bioorg Med Chem Lett, 2005).
